Data taken from patent US20190100549A1, “FLAVONOIDE-TYPE COMPOUNDS BEARING AN O-RHAMNOSYL RESIDUE” (Universitaet Hamburg, priority 2016, published 2019).
Several values for one entry are separate records, joined by “and”; a condition that tells them apart may be missing. Equal values may be shown once.

Experiments:
Assay type in all cases: cell-based
[1] = tested on: normal human epidermal keratinocytes (NHEK); experiment: Cytotoxicity on NHEK monolayer cultures (MTT reduction assay and morphological observation); conditions: for Viability (%): single values
Protocol: To determine the cytotoxicity of flavonoid-5-O-α-L-rhamnosides tests were performed versus their aglycon derivatives in cell monolayer cultures. For this purpose concentrations ranging from 1 μM to 250 μM were chosen. The viability of normal human epidermal keratinocytes (NHEK) was twice evaluated by a MTT reduction assay and morphological observation with a microscope. NHEK were grown at 37° C. and 5% CO2 aeration in Keratinocyte-SFM medium supplemented with epidermal growth factor (EGF) at 0.25 ng/mL, pituitary extract (PE) at 25 μg/mL and gentamycin (25 μg/mL) for 24 h and were used at the 3rd passage. For cytotoxicity testing, pre-incubated NHEK were given fresh culture medium containing a specific concentration of test compound and incubated for 24 h. After a medium change at same test concentration cells were incubated a further 24 h until viability was determined. Test results are given in Table B2 and illustrated in FIG. 10.

HaCaT cells = experiment: Glucose uptake (2-NBDG) in HaCaT keratinocytes; design: key to Measure 1 / Measure 2 / Measure 3 / Mean: total green object integrated intensity, GCU×μm2×Well; conditions: +2NBDG 50 μM, 24 h; for Measure 1 / Measure 2 / Measure 3: HaCaT cells, fluorescence; for RFU specific: mean minus control; for Mean: mean of triplicate measurements; for % Glucose uptake: Rosiglitazone 80 μM = 100%
Protocol: HaCaT cells (5×10^4) were seeded in 96-well black plates and incubated for 24 h. Then, medium was removed and the cells cultivated in OptiMEM, labeled with 50 μM 2-NBDG (2-[N-(7-nitrobenz-2-oxa-1,3-diazol-4-yl) amino]-2-deoxy-D-glucose and treated with the test substances or the positive control, Rosiglitazone, for 24 h. Medium was removed and the wells were carefully washed with PBS and incubated in PBS (100l/well). Finally the fluorescence was measured using the Incucyte FLR software, the data were analyzed by the total green object integrated intensity (GCU×μm2×Well) of the imaging system IncuCyte HD (Essen BioScience). The fluorescence of Rosiglitazone is taken as 100% of glucose uptake, and the glucose uptake was calculated as (% Glucose uptake)=100(T−B)/(R−B), where T (treated) is the fluorescence of test substance-treated cells, B (Basal) is the fluorescence of 2-NBDG cells and […] is the fluorescence of cells treated with Rosiglitazone.

NF-κB = NF-κB activity in NIH3T3-KBF-Luc cells stimulated with TNFα (luciferase); conditions: for % Activation: TNFα alone = 100
Protocol: NIH3T3-KBF-Luc cells were stably transfected with the KBF-Luc plasmid (Sancho (2003) Mol Pharmacol 63:429-438), which contains three copies of NF-κB binding site (from major histocompatibility complex promoter), fused to a minimal simian virus 40 promoter driving the luciferase gene. Cells (1×10^4 for NIH3T3-KBF-Luc) were seeded the day before the assay on 96-well plate. Then the cells were treated with the test substances for 15 min and then stimulated with 30 ng/ml of TNFα. After 6 h, the cells were washed twice with PBS and lysed in 50 μl lysis buffer containing 25 mM Tris-phosphate (pH 7.8), 8 mM MgCl2, 1 mM DTT, 1% Triton X-100, and 7% glycerol during 15 min at RT in a horizontal shaker. Luciferase activity was measured using a GloMax 96 microplate luminometer (Promega) following the instructions of the luciferase assay kit (Promega, Madison, Wis., USA). […] The experiments for each concentration of the test items were done in triplicate wells.

STAT3 = STAT3 activity in HeLa-STAT3-luc cells stimulated with IFN-γ (luciferase); conditions: for % Activation: IFNγ alone = 100
Protocol: HeLa-STAT3-luc cells were stably transfected with the plasmid 4xM67 pTATA TK-Luc. Cells (20×10^3 cells/ml) were seeded 96-well plate the day before the assay. Then the cells were treated with the test substances for 15 min and then stimulated with IFN-γ 25 IU/ml. After 6 h, the cells were washed twice with PBS and lysed in 50 μl lysis buffer containing 25 mM Tris-phosphate (pH 7.8), 8 mM MgCl2, 1 mM DTT, 1% Triton X-100, and 7% glycerol during 15 min at RT in a horizontal shaker. Luciferase activity was measured using GloMax 96 microplate luminometer (Promega) following the instructions of the luciferase assay kit (Promega, Madison, Wis., USA). […] The experiments for each concentration of the test items were done in triplicate wells.

O=C1CC(c2ccc(O)cc2)Oc2cc(O)cc(O)c21 (centres unmarked) [Naringenin, 4′,5,7-Trihydroxyflavanone]
Viability (%) Mean ([1]; 1 μM): 95%
Viability (%) ([1]; 1 μM): 96% and 95%
Viability (%) Mean ([1]; 2.5 μM): 93%
Viability (%) ([1]; 2.5 μM): 95% and 92%
Viability (%) Mean ([1]; 5 μM): 92%
Viability (%) ([1]; 5 μM): 93% and 91%
Viability (%) Mean ([1]; 10 μM): 95%
Viability (%) ([1]; 10 μM): 95%
Viability (%) Mean ([1]; 25 μM): 92%
Viability (%) ([1]; 25 μM): 89% and 94%
Viability (%) Mean ([1]; 50 μM): 89%
Viability (%) ([1]; 50 μM): 85% and 94%
Morph. obs. ([1]; 100 μM): +/−, *
Viability (%) Mean ([1]; 100 μM): 75%
Viability (%) ([1]; 100 μM): 76% and 74%
Morph. obs. ([1]; 250 μM): +/−, *
Viability (%) Mean ([1]; 250 μM): 47%
Viability (%) Mean ([1]; 250 μM, listed as naringenin): about 50%
Viability (%) ([1]; 250 μM): 48% and 47%

Chrysin-5-O-α-L-rhamnoside [CR2]
Measure 1 (HaCaT cells; 25 μM test substance): 427937
Measure 2 (HaCaT cells; 25 μM test substance): 431593
Measure 3 (HaCaT cells; 25 μM test substance): 390512
RFU specific (HaCaT cells; 25 μM test substance): 410367 RFU
Mean (HaCaT cells; 25 μM test substance): 416681
% Glucose uptake (HaCaT cells; 25 μM test substance): 47.2%
Measure 1 (HaCaT cells; 50 μM test substance): 771478
Measure 2 (HaCaT cells; 50 μM test substance): 1100390
Measure 3 (HaCaT cells; 50 μM test substance): 923151
RFU specific (HaCaT cells; 50 μM test substance): 925359 RFU
Mean (HaCaT cells; 50 μM test substance): 931673
% Glucose uptake (HaCaT cells; 50 μM test substance): 106.5%
RLU 1 (NF-κB; 10 μM + 30 ng/ml TNFα): 156600 RLU
RLU 2 (NF-κB; 10 μM + 30 ng/ml TNFα): 160140 RLU
RLU 3 (NF-κB; 10 μM + 30 ng/ml TNFα): 151070 RLU
RLU MEAN (NF-κB; 10 μM + 30 ng/ml TNFα): 155937 RLU
RLU specific (NF-κB; 10 μM + 30 ng/ml TNFα): 132573 RLU
% Activation (NF-κB; 10 μM + 30 ng/ml TNFα): 101.7%
RLU 1 (NF-κB; 25 μM + 30 ng/ml TNFα): 170390 RLU
RLU 2 (NF-κB; 25 μM + 30 ng/ml TNFα): 179220 RLU
RLU 3 (NF-κB; 25 μM + 30 ng/ml TNFα): 163490 RLU
RLU MEAN (NF-κB; 25 μM + 30 ng/ml TNFα): 171033 RLU
RLU specific (NF-κB; 25 μM + 30 ng/ml TNFα): 147670 RLU
% Activation (NF-κB; 25 μM + 30 ng/ml TNFα): 113.2%

Silibinin-5-O-α-L-rhamnoside [SR1]
RLU 1 (NF-κB; 10 μM + 30 ng/ml TNFα): 269710 RLU
RLU 2 (NF-κB; 10 μM + 30 ng/ml TNFα): 262180 RLU
RLU 3 (NF-κB; 10 μM + 30 ng/ml TNFα): 254090 RLU
RLU MEAN (NF-κB; 10 μM + 30 ng/ml TNFα): 261993 RLU
RLU specific (NF-κB; 10 μM + 30 ng/ml TNFα): 229147 RLU
% Activation (NF-κB; 10 μM + 30 ng/ml TNFα): 154.8%
RLU 2 (NF-κB; 25 μM + 30 ng/ml TNFα): 171280 RLU
RLU 3 (NF-κB; 25 μM + 30 ng/ml TNFα): 171730 RLU
RLU MEAN (NF-κB; 25 μM + 30 ng/ml TNFα): 172650 RLU
RLU specific (NF-κB; 25 μM + 30 ng/ml TNFα): 139803 RLU
% Activation (NF-κB; 25 μM + 30 ng/ml TNFα): 94.4%
RLU 1 (STAT3; 25 μM + IFNγ 25 U/ml): 9507 RLU
RLU 2 (STAT3; 25 μM + IFNγ 25 U/ml): 11653 RLU
RLU 3 (STAT3; 25 μM + IFNγ 25 U/ml): 10203 RLU
RLU MEAN (STAT3; 25 μM + IFNγ 25 U/ml): 10454 RLU
RLU specific (STAT3; 25 μM + IFNγ 25 U/ml): 8447 RLU
% Activation (STAT3; 25 μM + IFNγ 25 U/ml): 92.24%
RLU 1 (STAT3; 50 μM + IFNγ 25 U/ml): 10090 RLU
RLU 2 (STAT3; 50 μM + IFNγ 25 U/ml): 11355 RLU
RLU 3 (STAT3; 50 μM + IFNγ 25 U/ml): 10938 RLU
RLU MEAN (STAT3; 50 μM + IFNγ 25 U/ml): 10794 RLU
RLU specific (STAT3; 50 μM + IFNγ 25 U/ml): 8787 RLU
% Activation (STAT3; 50 μM + IFNγ 25 U/ml): 95.95%

COc1ccc(C2CC(=O)c3c(O)cc(O)cc3O2)cc1O (centres unmarked) [Hesperetin, 3′,5,7-Trihydroxy-4′-methoxyflavanone]
Viability (%) Mean ([1]; 1 μM): 105%
Viability (%) ([1]; 1 μM): 103% and 106%
Viability (%) Mean ([1]; 2.5 μM): 103%
Viability (%) ([1]; 2.5 μM): 98% and 109%
Viability (%) Mean ([1]; 5 μM): 106%
Viability (%) ([1]; 5 μM): 107% and 106%
Viability (%) Mean ([1]; 10 μM): 103%
Viability (%) ([1]; 10 μM): 101% and 105%
Viability (%) Mean ([1]; 25 μM): 108%
Viability (%) ([1]; 25 μM): 106% and 109%
Viability (%) Mean ([1]; 50 μM): 106%
Viability (%) ([1]; 50 μM): 106%
Viability (%) Mean ([1]; 100 μM): 99%
Viability (%) ([1]; 100 μM): 98% and 100%
Viability (%) Mean ([1]; 250 μM): 57%
Viability (%) Mean ([1]; 250 μM, listed as hesperetin): about 50%
Viability (%) ([1]; 250 μM): 54% and 59%
